# Source: patent publication US20260191848A1, “METHODS OF REVERSING PARP-RESISTANCE IN CANCER” (THE TRUSTEES OF COLUMBIA UNIVERSITY IN THE CITY OF NEW YORK, priority 2023, published 2026)
# “Also recorded” adds a separate entry of the source.
# B1: PGF: mouse recombinant PGF (R&D Systems, #465-PL-010), placental growth factor (protein)
# chain: VHSQGALSAGNNSTEVEVVPFNEVWGRSYCRPMEKLVYILDEYPDEVSHIFSPSCVLLSRCSGCCGDEGLHCVPIKTANITMQILKIPPNRDPHFYVEMTFSQDVLCECRPILETTKAERRKTKGKRKRSRNSQTEEPHP
# Experiments:
# [1] = tested on: talazoparib-resistant Bard1-def tumors; assay: Talazoparib-resistant Bard1-def orthotopic allograft in B6/129F1 mice (tumor growth, weight, immunostaining, body weight); format: in vivo, mouse; conditions: for body weight: from treatment initiation until endpoint, talazoparib 0.3 mg/kg/day, axitinib 30 mg/kg/day
# Experimental: (§2) Treatment with Tal (0.3 mg/kg body weight per day, five days/week, oral gavage) began two weeks following tumor-cell injection. Tumors were collected after tumor relapse in the Tal-treated group and were then dissociated and selected to generate Tal-resistant Brca1-def breast cancer cell lines. […] Tal-resistant, Brca1-def tumors were then isolated at 13 weeks following tumor-cell injection. n=32 for Veh-treated mice; n=24 for Tal-treated mice. Data are presented as mean values±SEM. P values were determined by a two-tailed, unpaired, Mann-Whitney test. * at 2 weeks indicates P=0.0169; *** at 3 weeks indicates P=0.0007; **** at 5 and 7 weeks indicates P<0.0001. […] P values were determined by a two-tailed, unpaired, Mann-Whitney test. * at 3 weeks indicates P=0.0174; ns: not significant. […] Treatment began one-week post tumor-cell injection. […] Data are presented as mean values±SEM. P values were determined by a two-tailed, unpaired, Mann-Whitney test. ** at 3 and 4 weeks indicates P=0.0043; ** at 5 weeks indicates P=0.0095.
# [2] = tested on: talazoparib-resistant Brca1-def tumors; assay: Talazoparib-resistant Brca1-def orthotopic allograft in B6/129F1 mice (tumor growth, weight, immunostaining, body weight); format: in vivo, mouse; conditions: for body weight: from treatment initiation until endpoint, talazoparib 0.3 mg/kg/day, axitinib 30 mg/kg/day
# Experimental: as §2
# [3] = tested on: relapsed high-grade ovarian cancer; conditions: relapsed high-grade ovarian cancer patients, p=0.007; cited from earlier work
# [4] = tested on: Bard1-def Tal-sensitive tumors; assay: In-vivo PARPi-response-and-recurrence model, Bard1-def orthotopic allograft (talazoparib-sensitive)
# Experimental: (§3) Treatment with Tal (0.3 mg/kg body weight per day, five days/week, oral gavage) began two weeks following tumor-cell injection. Tumors were collected after tumor relapse in the Tal-treated group and were then dissociated and selected to generate Tal-resistant Brca1-def breast cancer cell lines. […] Tal-resistant, Brca1-def tumors were then isolated at 13 weeks following tumor-cell injection. n=32 for Veh-treated mice; n=24 for Tal-treated mice. Data are presented as mean values±SEM. […] FIG. 1C, Mice were injected with the Tal-resistant (“Tal-Res”), Brca1-def breast cancer cell line isolated in B and then checked for sensitivity to Tal. n=21 for Veh-treated mice; n=31 for Tal-treated mice. […] Treatment began one-week post tumor-cell injection. […] Data are presented as mean values±SEM. […] FIG. 1F, Mice were injected with the Tal-Res, Bard1-def breast cancer cell line isolated in E and then checked for sensitivity to Tal. n=12 for Veh-treated mice; n=14 for Tal-treated mice.
# (§4) To study mechanisms of PARPi resistance in vivo, mammary glands from syngeneic B6/129F1 mice were orthotopically injected with luciferase-labeled Brca1- or Bard1-deficient mammary cancer cell lines (hereafter referred to as Brca1-def and Bard1-def) derived from Brca1- or Bard1-conditionally deleted mice^23 (FIGS. 1A and 1D). As tumors started to grow, tumor-bearing mice were randomized and treated five days/week with either vehicle or the PARPi talazoparib (referred to as “Tal” in the figures) at a dose of 0.3 mg/kg body weight/day starting at either 14 days (Brca1-def) or 7 days (Bard1-def) post tumor-cell injection. Tumor size was monitored weekly (FIGS. 1B and 1E). […] While tumor growth in Brca1-def models was monitored for 13 weeks post tumor-cell injection, Bard1-def models could only be monitored for 5 weeks post tumor-cell injection due to the onset of cachexia, as described in the previous studies^36. PARPi-resistant tumors were then collected, and cancer cells were purified and re-injected into the mammary glands of new B6/129F1 recipient mice. Mice were treated following the same dosing schedule as described above.
# [5] = tested on: Brca1-def Tal-sensitive tumors; assay: In-vivo PARPi-response-and-recurrence model, Brca1-def orthotopic allograft (talazoparib-sensitive)
# Experimental: as §3, §4
# [6] = tested on: talazoparib-resistant Brca1-def tumor cells (pAKT Ser473, pSTAT3); assay: Immunoblot after recombinant PGF treatment, talazoparib-resistant Brca1-def tumor cells (Con vs Flt1i); format: cell-based; conditions: 50 ng/ml mouse recombinant PGF, serum-free medium, 15 s
# Experimental: (§1) FIG. 18A-FIG. 18H—FLT1 activation in Brca1- and Bard1-def breast tumor cells induces pro-survival AKT signaling. (FIG. 18A, FIG. 18B) Immunoblot analysis was performed on lysates from Flt1-expressing (Con) and -deficient (Flt1i), talazoparib-resistant (“Res”) Brca1- and Bard1-def tumor cells, that were treated with 50 ng/ml of mouse PGF protein using antibodies against phosphorylated-AKT at serine 473 (pAKT Ser473), AKT, and β-actin. […] Scale bars, 20 μm. (FIG. 18D) Immunostained sections from (C) were quantified using automated QuPath software to identify positively stained cells. n=5 mice for Sen and Res groups for both models. Data were presented as mean values±SEM. […] (FIG. 18E) Representative images of IHC for pAKT Ser473 staining on talazoparib-treated “Tal”, Lenti-Con- and Flt1i-expressing Res tumor sections from both models (see FIG. 3C). Scale bars, 20 μm. […] (FIG. 18G) Representative images of IHC for pAKT Ser473 on Tal-treated and Tal+Axi-treated tumor sections from both models (see FIG. 4A/D). Scale bars, 20 μm. (FIG. 18H) Immunostained sections from (G) were quantified using automated QuPath software to identify positively stained cells. For the Brca1-def model, n=4 tumors from both Tal-treated and Tal+Axi-treated mice. For the Bard1-def model, n=5 tumors from both Tal-treated and Tal+Axi-treated mice. Data were presented as mean values±SEM. […]
# [7] = tested on: talazoparib-resistant Bard1-def tumor cells (pAKT Ser473, pSTAT3); assay: Immunoblot after recombinant PGF treatment, talazoparib-resistant Bard1-def tumor cells (Con vs Flt1i); format: cell-based; conditions: 50 ng/ml mouse recombinant PGF, serum-free medium, 10 min
# Experimental: as §1
# [8] = talazoparib alone 0.3 mg/kg/day, five days/week, vs vehicle
molecule,measurement,setting,value
CNC(=O)c1ccccc1Sc1ccc2c(/C=C/c3ccccn3)n[nH]c2c1 [axitinib],body weight,[1],remained stable
same,body weight,[2],remained stable
O=C(c1cc(Cc2n[nH]c(=O)c3ccccc23)ccc1F)N1CCN(C(=O)C2CC2)CC1 [olaparib],median progression-free survival (PFS),[3],8.2 months
Cn1ncnc1[C@H]1c2n[nH]c(=O)c3cc(F)cc(c23)N[C@@H]1c1ccc(F)cc1 [talazoparib],"relapse tumors arose, time post tumor-cell injection",[4]; Tal treatment begun one week post tumor-cell injection,about three
same,development of drug resistance (recurrence of tumors),"[4]; continued talazoparib treatment, monitored 5 weeks post tumor-cell injection",eventually developed drug resistance; also recorded: soon progressed
same,tumor growth,"[4]; talazoparib 0.3 mg/kg body weight/day, five days/week, oral gavage, from 7 days post tumor-cell injection, vs vehicle",responded initially
same,"relapse, time following the start of Tal treatment","[5]; Tal 0.3 mg/kg per day, five days/week, oral gavage, begun two weeks after tumor-cell injection",about seven
same,development of drug resistance (recurrence of tumors),"[5]; continued talazoparib treatment, monitored 13 weeks post tumor-cell injection",eventually developed drug resistance; also recorded: eventually became refractory to the treatment
same,tumor growth,"[5]; talazoparib 0.3 mg/kg body weight/day, five days/week, oral gavage, from 14 days post tumor-cell injection, vs vehicle",suppressed tumor growth for several weeks
same,body weight,[1],remained stable
same,"tumor growth and weight at endpoint, Flt1-repressed (Flt1i) resistant tumor cells","[1]; talazoparib 0.3 mg/kg body weight/day, five days/week, Flt1i+Tal vs Lenti-Con+Tal, endpoint 3 weeks",re-sensitizes PARPi-resistant tumors to talazoparib
same,tumor regression / response of PARPi-resistant tumor lines to PARPi treatment,[1]; [8],no tumor regression; also recorded: failed to respond in-vivo
same,body weight,[2],remained stable
same,"tumor growth and weight at endpoint, Flt1-repressed (Flt1i) resistant tumor cells","[2]; talazoparib 0.3 mg/kg body weight/day, five days/week, Flt1i+Tal vs Lenti-Con+Tal, endpoint 4 weeks",re-sensitizes PARPi-resistant tumors to talazoparib
same,tumor regression / response of PARPi-resistant tumor lines to PARPi treatment,[2]; [8],no tumor regression; also recorded: failed to respond in-vivo
B1,activation of AKT (pAKT Ser473 immunoblot),[6],FLT1-dependent activation of AKT
same,activation of STAT3 (pSTAT3 immunoblot),[6],not STAT3
same,activation of AKT (pAKT Ser473 immunoblot),[7],FLT1-dependent activation of AKT
same,activation of STAT3 (pSTAT3 immunoblot),[7],not STAT3
